The text below walks through data of patent US20120135975A1, “Substituted Esters as Cannabinoid-1 Receptor Modulators” (MERCK & CO., INC., priority 2006, published 2012).

SMILES strings stand for the structures.

One may read the IC50 as the point on the concentration scale where inhibition reaches its midpoint. As a reminder, the EC50 is the concentration that produces a half-maximal response.

Assay [1] deals with T1, recombinant human CB1 receptor (Homo sapiens, UniProt P21554).
T1 construct: expressed in transfected cells
In words: Cannabinoid Receptor-1 (CB1) binding assay. Particulars: [3H]CP-55940 0.6 nM, receptor expressed in CHO cells. As to the method:
(§1) Binding affinity determination is based on recombinant human CB1 receptor expressed in Chinese Hamster Ovary (CHO) cells (Felder et al, Mol. Pharmacol. 48: 443-450, 1995). Total assay volume is 250 μL (240 μL CB1 receptor membrane solution plus 5 μL test compound solution plus 5 μL [3H]CP-55940 solution). Final concentration of [3H]CP-55940 is 0.6 nM. Binding buffer contains 50 mM Tris-HCl, pH7.4, 2.5 mM EDTA, 5 mM MgCl2, 0.5 mg/mL fatty acid free bovine serum albumin and protease inhibitors (Cat#P8340, from Sigma). To initiate the binding reaction, 5 μL of radioligand solution is added, the mixture is incubated with gentle shaking on a shaker for 1.5 hours at 30° C. The binding is terminated by using 96-well harvester and filtering through GF/C filter presoaked in 0.05% polyethylenimine. The bound radiolabel is quantitated using scintillation counter. Apparent binding affinities for various compounds are calculated from IC50 values (DeBlasi et al., Trends Pharmacol Sci 10: 227-229, 1989).

The target of assay [2] is T2, recombinant human CB2 receptor (Homo sapiens, UniProt P34972).
T2 construct: expressed in transfected cells
In words: CB2 receptor binding assay. The settings on record: receptor expressed in CHO cells. As to the method: as §1
The binding assay for CB2 receptor is done similarly with recombinant human CB2 receptor expressed in CHO cells.

Assay [3] concerns the target T2, recombinant human CB2 receptor. In words: CB2 receptor functional assay (cAMP). In kind it is cell-based. Particulars: CB2 receptor expressed in CHO cells. As to the method:
(§2) The functional activation of CB1 receptor is based on recombinant human CB1 receptor expressed in CHO cells (Felder et al, Mol. Pharmacol. 48: 443-450, 1995). To determine the agonist activity or inverse agonist activity of any test compound, 50 μL of CB1-CHO cell suspension are mixed with test compound and 70 uL assay buffer containing 0.34 mM 3-isobutyl-1-methylxanthine and 5.1 μM of forskolin in 96-well plates. The assay buffer is comprised of Earle's Balanced Salt Solution supplemented with 5 mM MgCl2, 1 mM glutamine, 10 mM HEPES, and 1 mg/mL bovine serum albumin. The mixture is incubated at room temperature for 30 minutes, and terminated by adding 30 μl/well of 0.5M HCl. The total intracellular cAMP level is quantitated using the New England Nuclear Flashplate and cAMP radioimmunoassay kit.
(§3) To determine the antagonist activity of test compound, the reaction mixture also contains 0.5 nM of the agonist CP55940, and the reversal of the CP55940 effect is quantitated. Alternatively, a series of dose response curves for CP55940 is performed with increasing concentration of the test compound in each of the dose response curves.
The functional assay for the CB2 receptor is done similarly with recombinant human CB2 receptor expressed in CHO cells.

Assay [4] addresses T1, recombinant human CB1 receptor. In words: Cannabinoid Receptor-1 (CB1) functional activity assay (cAMP). It is filed as cell-based. The settings on record: CB1-CHO cells, forskolin-stimulated cAMP. As to the method:
as §2, §3

T1 sequence (P21554 whole entry): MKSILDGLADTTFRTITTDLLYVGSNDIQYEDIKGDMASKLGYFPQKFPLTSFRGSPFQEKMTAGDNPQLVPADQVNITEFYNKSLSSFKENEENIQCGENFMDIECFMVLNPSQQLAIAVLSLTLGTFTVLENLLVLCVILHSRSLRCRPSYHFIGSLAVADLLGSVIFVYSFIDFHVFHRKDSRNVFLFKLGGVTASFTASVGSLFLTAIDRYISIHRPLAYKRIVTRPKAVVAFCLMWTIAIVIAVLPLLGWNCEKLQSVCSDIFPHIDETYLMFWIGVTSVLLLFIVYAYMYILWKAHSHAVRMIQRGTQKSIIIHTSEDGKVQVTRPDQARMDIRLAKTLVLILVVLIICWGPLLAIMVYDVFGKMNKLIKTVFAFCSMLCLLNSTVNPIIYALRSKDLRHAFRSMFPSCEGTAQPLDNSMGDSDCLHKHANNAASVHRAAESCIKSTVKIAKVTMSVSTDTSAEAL
T2 sequence (P34972 whole entry): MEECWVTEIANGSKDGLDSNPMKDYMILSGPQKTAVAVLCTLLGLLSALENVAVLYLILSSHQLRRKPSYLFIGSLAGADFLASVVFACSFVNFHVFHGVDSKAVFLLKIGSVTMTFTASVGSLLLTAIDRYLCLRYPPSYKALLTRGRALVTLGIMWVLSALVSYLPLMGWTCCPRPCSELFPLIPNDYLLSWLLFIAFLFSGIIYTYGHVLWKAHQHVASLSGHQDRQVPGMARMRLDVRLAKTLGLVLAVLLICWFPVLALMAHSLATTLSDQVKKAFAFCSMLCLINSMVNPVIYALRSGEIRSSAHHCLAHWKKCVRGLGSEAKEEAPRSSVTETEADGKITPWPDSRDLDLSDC

Regarding `C[C@H](NC(=O)C(C)(C)OC(=O)c1c(Cl)cccc1Cl)[C@@H](Cc1ccc(Cl)cc1)c1cccc(C#N)c1` [Example 30, N-(3-(4-chlorophenyl)-2(S)-(3-cyanophenyl)-1(S)-methylpropyl)-2-(2,6-dichloro-benzoyloxy)-2-methyl-propanamide], the IC50 in assay [1] was 2.54 nM; in assay [2], 811 nM. The “% max in the CB2 functional assay” value in assay [3] is given as −192 % max. Moreover, the EC50 in assay [3] came out at 162 nM; in assay [4], 1.85 nM. Besides, the “% max in the CB1 functional assay” value in assay [4] is −157 % max.
